Marks after values point to notes of the source that are not given here.

Data set [1] deals with IL-10 in serum of mice administered with LPS. Nature of the data set: Serum IL-10 in LPS-administered mice, ANO i.v. (Experiment 7). The following applies: LPS 18 mg/kg i.p., serum two hours after LPS. It is filed as in vivo, BALB/c mice. The method, then:
(§1) More specifically, 18 BALB/c female mice, 9-week-old, commercialized by Japan Charles River, Tokyo, Japan, were randomly divided into three groups, six heads each. An LPS specimen derived from E. coli (055:B5), commercialized by Sigma-Aldrich Corporation, St. Louis, Mo. USA, was dissolved in physiological saline and intraperitoneally administered to all the 6 mice in respective three groups at a dose of 18 mg/kg body weight of LPS (Experiment groups 1 to 3). […] To the six mice of the remaining one group was intravenously administered PBS in a liquid volume of 0.2 mL/head simultaneously with the administration of LPS (Experiment group 1).
(§2) For the mice in each group, they were collected blood at two hours after the LPS administration, followed by assaying the level of TNF-α, IL-6, IL-10, and IL-12 in each serum and averaging the data for each group. For the assay of the level of TNF-α, the same ELISA as in Experiment 2 was used and for the assay of the level of IL-6, the same ELISA as in Experiment 3 was used. […]

For data set [2], the system named is IL-12 in serum of mice administered with LPS. The data set can be described thus: Serum IL-12 in LPS-administered mice, ANO i.v. (Experiment 7). The following applies: LPS 18 mg/kg i.p., serum two hours after LPS. It is filed as in vivo, BALB/c mice. The method, then: as §1, §2
For data set [3], the system named is TNF-α in serum of mice administered with LPS. Nature of the data set: Serum TNF-α in LPS-administered mice, oral administration (Experiment 11). The data set is classed as in vivo, BALB/c mice. The following applies: LPS 18 mg/kg i.p., serum 90 min after LPS. The method, then: The seven mice in another one group were orally administered through a gastric tube with 3′-glucosyl-adenosine N1-oxide, which had been dissolved in PBS, at a dose of 200 mg/kg body weight in a liquid volume of 0.2 mL/head (Experiment group 4). The seven mice in the remaining one group were orally administered through a gastric tube with PBS in a liquid volume of 0.2 mL/head (Experiment group 1). All the mice were intraperitoneally administered with an LPS specimen derived from E. coli (055:B5), commercialized by Sigma-Aldrich Corporation, St. Louis, Mo. USA, which had been dissolved in PBS, at a dose of 18 mg/kg body weight (Experiment groups 1 to 4). For each group, the mice were collected blood from their tail veins at 90 min after administering LPS, followed by assaying the concentrations of TNF-α, IL-6, and IL-10 contained in serum by the same method as in […].

The conditions of data set [4]: mouse, in vivo.
Experimental: The eight mice in each five groups were sensitized (may be simply called “sensitization”, hereinafter) with picryl chloride (Tokyo Chemical Industry Co., Ltd., Tokyo, Japan) in such a manner of dropping a solution, which had been dissolved in a mixture solution of ethanol and acetone in a volume ratio of 4:1 at a concentration of 5%, on the shaved abdominal skin of the mice and on four footpads in a total volume of 150 μL/mouse, and spreading the solution over the abdominal skin and the foot pads by using a micropipette similarly as above.
Throughout the test period, the mice were weighed once a week. The judgement of the conditions of skin inflammation was conducted twice a week every Tuesday and Friday from the 3rd induction for the degrees of four items of red flare/bleeding, edema (swelling of earflap), chafing/loss of tissue, and the formation of scar tissue/drying, and scored based on the criterion of four grades shown in Table 17; “0” (symptomless), “1” (mild), “2” (moderate), and “3” (severe). The total scores of each evaluation items for each group were averaged for use as a skin score.

Take `Nc1c2ncn([C@@H]3O[C@H](CO)[C@@H](O)[C@H]3O)c2nc[n+]1[O-]` [ANO, adenosine N1-oxide]: the “IL-10 Concentration” value in data set [1] (ANO 68 mg/kg i.v.) was 14.1 ng/mL; in data set [1] (ANO 135 mg/kg i.v.) it was 19.3 ng/mL. The “IL-12 Concentration” value in data set [2] (ANO 68 mg/kg i.v.) was 136** pg/mL; in data set [2] (ANO 135 mg/kg i.v.), 105** pg/mL. The “Amount of TNF-α” value in data set [3] (oral 100 mg/kg) was 1339 pg/mL; in data set [3] (oral 200 mg/kg), 874* pg/mL.

Consider `Nc1ncnc2c1ncn2[C@@H]1O[C@H](CO)[C@@H](O)[C@H]1O` [AN, adenosine], for which the “body weight of mice applied with the gel” value in data set [4] is on record as “reduction of increasing rate of their body weights”.
